# The source made the active and inactive calls. The calls are words filed in the database; no cut-off is given here.
# Columns and labels:
# HuCCT-1 [1] = test: (§1) Cytotoxicity against human HuCCT1 cells after 72 hrs by MTT assay; assay type: functional, cell-based
# MIA PaCa-2 [2] = test: Growth inhibition of human MIAPaCa2 cells at 10 uM after 72 hrs by MTT assay relative to control; assay type: functional; conditions: for inhibition of growth at 10 µM: MIA PaCa-2, 72 h, read-out: GI
# [3] = Growth inhibition of human HuCCT1 cells at 4 uM after 72 hrs by MTT assay relative to control; assay type: functional; conditions: HuCCT-1, 72 h, read-out: GI
# MIA PaCa-2 [4] = test: Inhibition of Akt phosphorylation in human MIAPaCa2 cells assessed as effect on […] at 7 uM after 48 hrs by immunoblotting; assay type: cell-based
# MIA PaCa-2 [5] = test: Downregulation of K-ras in human MIAPaCa2 cells at 10 uM after 72 hrs by agarose gel electrophoresis; assay type: functional, cell-based
# [6] = Downregulation of H-ras in human HuCCT1 cells at 6 uM after 72 hrs by agarose gel electrophoresis; assay type: functional, cell-based; conditions: HuCCT-1
# MIA PaCa-2 [7] = test: Inhibition of ERK phosphorylation in human MIAPaCa2 cells assessed as reduction in phospho-ERK levels at 7 uM after 48 hrs by immunoblotting; assay type: cell-based
# [8] = as §1; assay type: functional, cell-based; conditions: HuCCT-1, 72 h
# [9] = Downregulation of K-ras in human HuCCT1 cells at 6 uM after 72 hrs by agarose gel electrophoresis; assay type: functional, cell-based; conditions: HuCCT-1
# MIA PaCa-2 [10] = test: Cytotoxicity against human MIAPaCa2 cells after 72 hrs by MTT assay; assay type: functional, cell-based; conditions: MIA PaCa-2, 72 h
# MIA PaCa-2 [11] = test: Downregulation of K-ras in human MIAPaCa2 cells at 7 uM after 72 hrs by agarose gel electrophoresis; assay type: functional, cell-based
# HuCCT1 [12] = test: Inhibition of ERK phosphorylation in human HuCCT1 cells assessed as reduction in phospho-ERK levels at 6 uM after 48 hrs by immunoblotting; assay type: cell-based
# HuCCT-1 [13] = test: Induction of apoptosis in human HuCCT1 cells after 72 hrs; assay type: functional, cell-based
# [14] = Downregulation of K-ras in human HuCCT1 cells at 2 uM after 72 hrs by agarose gel electrophoresis; assay type: functional, cell-based; conditions: HuCCT-1
# MIA PaCa-2 [15] = test: Induction of apoptosis in human MIAPaCa2 cells after 72 hrs; assay type: functional, cell-based
# MIA PaCa-2 [16] = test: Growth inhibition of human MIAPaCa2 cells at 4 uM after 72 hrs by MTT assay relative to control; assay type: functional; conditions: MIA PaCa-2, 72 h, read-out: GI
# HuCCT-1 [17] = test: (§2) Growth inhibition of human HuCCT1 cells at 10 uM after 72 hrs by MTT assay relative to control; assay type: functional
# HuCCT1 [18] = test: Inhibition of Akt phosphorylation in human HuCCT1 cells assessed as reduction in phospho-Akt levels at 6 uM after 48 hrs by immunoblotting; assay type: cell-based
# [19] = as §2; assay type: functional; conditions: HuCCT-1, 72 h, read-out: GI
# MIA PaCa-2 [20] = test: Cellular uptake in human MIAPaCa2 cells at 10 uM up to 30 mins by HPLC analysis; assay type: ADME, cell-based; conditions: mia paca-2, 0.5 h
# MIA PaCa-2 [21] = test: Inhibition of Akt phosphorylation in human MIAPaCa2 cells assessed as effect on […] at 10 uM after 48 hrs by immunoblotting; assay type: cell-based
# HuCCT1 [22] = test: Inhibition of Akt phosphorylation in human HuCCT1 cells assessed as reduction in phospho-Akt levels at 2 uM after 48 hrs by immunoblotting; assay type: cell-based
# [23] = Cellular uptake in human HuCCT1 cells at 10 uM measured after 30 mins up to 60 mins; assay type: ADME, cell-based; conditions: hucct-1, 10 µM
# [24] = Cellular uptake in human HuCCT1 cells at 10 uM up to 30 mins by HPLC analysis; assay type: ADME, cell-based; conditions: hucct-1, 0.5 h
# [25] = Growth inhibition of human HuCCT1 cells at 1 uM after 72 hrs by MTT assay relative to control; assay type: functional; conditions: HuCCT-1, 72 h, read-out: GI
# [26] = Downregulation of H-ras in human HuCCT1 cells at 2 uM after 72 hrs by agarose gel electrophoresis; assay type: functional, cell-based; conditions: HuCCT-1
# MIA PaCa-2 [27] = test: Growth inhibition of human MIAPaCa2 cells at 1 uM after 72 hrs by MTT assay; assay type: functional; conditions: MIA PaCa-2, 72 h, read-out: GI
# HuCCT1 [28] = test: Inhibition of ERK phosphorylation in human HuCCT1 cells assessed as reduction in phospho-ERK levels at 2 uM after 48 hrs by immunoblotting; assay type: cell-based
# MIA PaCa-2 [29] = test: Inhibition of ERK phosphorylation in human MIAPaCa2 cells assessed as reduction in phospho-ERK levels at 10 uM after 48 hrs by immunoblotting; assay type: cell-based
# [30] = Downregulation of N-ras in human HuCCT1 cells at 2 uM after 72 hrs by agarose gel electrophoresis; assay type: functional, cell-based; conditions: HuCCT-1
# Nucleic Acid = test: Ratio of drug level in human MIAPaCa2 cells to human HuCCT1 cells at 30 mins; assay type: ADME, cell-based; conditions: mia paca-2, 0.5 h
SMILES,growth inhibition (GI) (HuCCT-1 [1]),inhibition of growth at 10 µM (MIA PaCa-2 [2]),inhibition of growth at 4 µM [3],Activity (MIA PaCa-2 [5]),IC50 [8],Activity [9],IC50 (MIA PaCa-2 [10]),Activity (MIA PaCa-2 [11]),Activity (HuCCT-1 [13]),Activity [14],Activity (MIA PaCa-2 [15]),inhibition of growth at 4 µM (MIA PaCa-2 [16]),inhibition of growth at 10 µM [19],other results
CCCCCCCCCC(=O)Nc1ccc(O)cc1,Dose-dependent effect,0%,23%,,,,,,,,,,,
CCCCCCCCCCNc1ccc(O)cc1,Dose-dependent effect,55%,82%,,,,,,,,,,,
CC1=C(/C=C/C(C)=C/C=C/C(C)=C/C(=O)Nc2ccc(O)cc2)C(C)(C)CCC1 [FENRETINIDE],Dose-dependent effect,,17%,Active,6 µM,Active,7 µM,Active,inactive,Active,inactive,8%,,inhibition (MIA PaCa-2 [4]): 30%; Activity [6]: Active; inhibition (MIA PaCa-2 [7]): inactive; growth inhibition (GI) (MIA PaCa-2 [2]): Active; inhibition (HuCCT1 [12]): inactive; growth inhibition (GI) (HuCCT-1 [17]): Active; inhibition (HuCCT1 [18]): inactive
CC1=C(/C=C/C(C)=C/C=C/C(C)=C/C(=O)O)C(C)(C)CCC1 [TRETINOIN],,18%,17%,,,,,,,,,15%,28%,
CCCCCCCCCCCCNc1ccc(O)cc1,Dose-dependent effect,50%,82%,Active,2 µM,Active,10 µM,Active,inactive,Active,inactive,45%,84%,Drug uptake (MIA PaCa-2 [20]): Active; inhibition (MIA PaCa-2 [21]): inactive; inhibition (HuCCT1 [22]): 20%; Drug uptake [23]: Not Active; Drug uptake [24]: Active; inhibition of growth at 1 µM [25]: 35%; Activity [26]: Active; inhibition of growth at 1 µM (MIA PaCa-2 [27]): 20%; inhibition (HuCCT1 [28]): 21%; inhibition (MIA PaCa-2 [29]): 50%; Activity [30]: Active; Ratio (Nucleic Acid): 1.8
CCCCCCCCCCCC(=O)Nc1ccc(O)cc1,Dose-dependent effect,0%,23%,,,,,,,,,,,
